{"source": "patent US8343475B2", "about": "“Small cationic antimicrobial peptides” (priority 2006, dated 2013)", "key": {"[1]": {"system": "Pseudomonas aeruginosa PAO1 strain H103", "format": "cell-based", "conditions": "PAO1", "in_short": "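Modified broth microdilution MIC in Mueller Hinton medium, peptides diluted in 0.01% acetic acid/0.2% BSA, polypropylene plates. Inoculum 2-7×10^5 CFU/ml, overnight at 37 °C; MIC is the lowest concentration with no visible growth.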"}, "[2]": {"system": "Enterococcus faecalis ATCC29212", "format": "cell-based", "conditions": "ATCC29212", "in_short": "(§1)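 No-growth endpoint after overnight culture at 37° C in Mueller Hinton broth. Inoculum: 2-7×10^5 CFU/ml. Peptide diluent: 0.01% acetic acid, 0.2% BSA.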"}, "Escherichia coli UB1005": {"system": "Escherichia coli UB1005", "format": "cell-based", "conditions": "UB1005", "in_short": "as §1"}, "[3]": {"system": "Staphylococcus aureus ATCC25923", "format": "cell-based", "conditions": "ATCC25923", "in_short": "as §1"}, "[4]": {"system": "clinical isolate of Staphylococcus epidermidis", "format": "cell-based", "conditions": "clinical isolate of", "in_short": "as §1"}, "[5]": {"system": "lab isolate of Candida albicans", "format": "cell-based", "conditions": "lab isolate of", "in_short": "as §1"}, "[6]": {"system": "wild-type Salmonella enterica ssp. typhimurium", "format": "cell-based", "in_short": "as §1"}, "S. aureus": {"system": "S. aureus", "test": "Mouse model of aggressive bacterial infection (intraperitoneal)", "format": "in vivo", "conditions": "1.6×10^10 CFU S. aureus IP; 8 mg/kg peptide IP four hours post infection", "method": "FIG. 10. Ability of new antimicrobial peptides HHC-10 and HHC-36 to protect mice against Staph aureus infections. Bacterial loads in the peritoneal lavage from individual mice after 24 hours of infection are shown (solid circles). Dead animals were assigned the highest colony forming unit (CFU) count obtained in the experiment. The solid line represents the arithmetic mean for each group.\n(§2) FIG. 18. […] Mice were treated with 1.6×10^10 CFU of S. aureus intraperitoneally. Four hours post infection they received a dose of 8 mg/kg peptide IP. The infection was allowed to progress for 4 or 24 hours after which mice were euthanaised and plate counts of staphylococci surviving in the peritoneum were determined. Bacterial loads in the peritoneal lavage from individual mice after 24 hours of infection are shown (solid circles). The solid line represents the arithmetic mean for each group.\nas §2, with “19.” for “18.”\nTo further confirm this, a mouse model of aggressive bacterial infection, widely used to assess antibiotic efficacy, was utilized. Mice were treated with 1.6×10^10 CFU IP. Four hours post infection they received a dose of 4 mg/kg peptide IP. The infection was allowed to progress for 20 more hours, for a total infection time of 24 hours.\nThese immunomodulatory activities led to protection against infections by S. aureus. Briefly a mouse model of aggressive bacterial infection, widely used to assess antibiotic efficacy, was utilized. […] The infection was allowed to progress for 4 or 24 hours after which mice were euthanaised and plate counts of staphylococci surviving in the peritoneum were determined."}, "[7]": {"system": "IL8 release by human PBMC", "test": "Chemokine induction in PBMC (capture ELISA)", "format": "cell-based", "conditions": "20 or 100 μg/ml peptide, 24 hours (FIG. 14)", "method": "FIG. 14. Induction of IL8 release by 7.5×10^5 human PBMC in response to treatment with 20 or 100 μg/ml of different peptides for 24 hours.\nVenous blood (20 ml) from healthy volunteers was collected in Vacutainer® collection tubes containing sodium heparin as an anticoagulant (Becton Dickinson, Mississauga, ON) in accordance with UBC ethical approval and guidelines. Blood was diluted 1:1 with complete RPMI 1640 medium and separated by centrifugation over a Ficoll-Paque® Plus (Amersham Biosciences, Piscataway, N.J., USA) density gradient. White blood cells were isolated from the buffy coat, washed twice in RPMI 1640 complete medium, and the number of peripheral blood mononuclear cells (PBMC) was determined by trypan blue exclusion. PBMC (5×10^5) were seeded into 12-well tissue culture dishes (Falcon; Becton Dickinson) at 0.75 to 1×10^6 cells/ml at 37° C. in 5% CO2. The above conditions were chosen to mimic conditions for circulating blood monocytes entering tissues at the site of infection via extravasation.\nFollowing incubation of the cells under various treatment regimens, the tissue culture supernatants were centrifuged at 1000×g for 5 min, then at 10,000×g for 2 min to obtain cell-free samples. Supernatants were aliquoted and then stored at −20° C. prior to assay for various chemokines by capture ELISA (eBioscience and BioSource International Inc., CA, USA respectively)"}, "[8]": {"system": "CXCL1 (Gro-α) release by human PBMC", "test": "Chemokine induction in PBMC (capture ELISA)", "format": "cell-based", "conditions": "background (196) subtracted", "in_short": "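Human PBMC from healthy donors' heparinised blood (Ficoll), 7.5×10^5 cells treated with 20 or 100 μg/ml peptide for 24 h at 37° C, 5% CO2. Cell-free supernatants assayed for CXCL1 by capture ELISA.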"}}, "note": "Residues, ends and D or L forms follow the SMILES beside them.", "data": [{"compound": "CC[C@H](C)[C@H](N)C(=O)N[C@@H](Cc1c[nH]c2ccccc12)C(=O)N[C@H](C(=O)N[C@H](C(=O)N[C@@H](Cc1c[nH]c2ccccc12)C(=O)N[C@@H](CCCNC(=N)N)C(=O)N[C@@H](CCCNC(=N)N)C(N)=O)[C@@H](C)CC)C(C)C", "note": "[HH18, IWVIWRR-NH2] (H-IWVIWRR-NH2; N-terminus assumed)", "values": [{"measurement": "MIC P. aerug", "setting": "[1]", "result": 50, "unit": "µg/mL"}, {"measurement": "MIC E. faecalis", "setting": "[2]", "result": 25, "unit": "µg/mL"}, {"measurement": "MIC E. coli", "setting": "Escherichia coli UB1005", "result": 6, "unit": "µg/mL"}, {"measurement": "MIC S. aureus", "setting": "[3]", "result": 25, "unit": "µg/mL"}, {"measurement": "MIC S. epi.", "setting": "[4]", "result": 6, "unit": "µg/mL"}, {"measurement": "MIC C. albicans", "setting": "[5]", "result": 25, "unit": "µg/mL"}, {"measurement": "MIC S. typhi", "setting": "[6]", "result": 12.5, "unit": "µg/mL"}, {"measurement": "protection of mice from S. aureus infections (bacterial loads in peritoneal lavage)", "setting": "S. aureus", "result": "Protection of mice from S. aureus infections"}, {"measurement": "induction of IL8", "setting": "[7]", "result": "strongest abilities to induce this chemokine"}, {"measurement": "Chemokine induction Gro-α", "setting": "[8]; 20 μg/ml peptide", "result": 865, "unit": "pg/mL"}, {"measurement": "Chemokine induction Gro-α", "setting": "[8]; 100 μg/ml peptide", "result": 2964, "unit": "pg/mL"}]}]}
